Experimental data from US11542271B2, “Fused heteroaromatic-aniline compounds for treatment of dermal disorders” (NFlection Therapeutics, Inc., priority 2017, dated 2023).
Like-named read-outs stand apart in the source and are kept apart here.

Columns and labels:
A375 cells = assay: A375 (BRAF) GI50 cell-based assay (Cell Titer-Glo); settings: Homo sapiens, A-375, 72 hours, read-out: Assay 2: A375 (BRAF) GI50
Protocol: (§1) Alternatively, the following procedure can be used to measure cell-based activity. Test compounds were dissolved in DMSO in 10 mM stock. Cell Titer-Glo® 2.0 Luminescent cell viability assay reagent was purchased from Promega (Madison, Wis.). A375 and HCT116 cell lines were purchased from American Type Culture Collection (Manassas, Va.). For A375 cells, cell culture media was DMEM+10% FBS. For HCT116 cells, cell culture media was McCoy's 5A+10% FBS. All media were supplemented with 100 μg/mL of penicillin, and 100 μg/mL of streptomycin. Cultures were maintained at 37° C. in a humidified atmosphere of 5% CO2 and 95% air.
(§2) Test compounds were diluted in DMSO solution with 10-dose and 3-fold dilutions in a source plate starting at 10 mM. […] Luminescence was recorded by Envision 2104 Multilabel Reader (PerkinElmer, Santa Clara, Calif.). The number of viable cells in culture was determined based on quantitation of the ATP present in each culture well. […] Luminescence was recorded by Envision 2104 Multilabel Reader (PerkinElmer, Santa Clara, Calif.). The number of viable cells in culture was determined based on quantitation of the ATP present in each culture well. […] All parameters in the equation were calculated by GraphPad Prism 4 program. […] Accordingly, GI50 is the value of 10^X, where X was calculated by the Curve Fitting Equation when Y=50 using Excel.

MAP2K1 (MEK1) = biological target: T1, MAP2K1 (MEK1) (Homo sapiens, UniProt Q02750); assay: MEK Inhibition Assay (Biological Example 1b, Z'-LYTE); settings: Biological Example 1b (compounds 1, 3, 5, 7-8); read-out: Assay 1: biochemical MEK IC50
T1 construct: purchased ThermoFisher
T1 sequence (Q02750 whole entry): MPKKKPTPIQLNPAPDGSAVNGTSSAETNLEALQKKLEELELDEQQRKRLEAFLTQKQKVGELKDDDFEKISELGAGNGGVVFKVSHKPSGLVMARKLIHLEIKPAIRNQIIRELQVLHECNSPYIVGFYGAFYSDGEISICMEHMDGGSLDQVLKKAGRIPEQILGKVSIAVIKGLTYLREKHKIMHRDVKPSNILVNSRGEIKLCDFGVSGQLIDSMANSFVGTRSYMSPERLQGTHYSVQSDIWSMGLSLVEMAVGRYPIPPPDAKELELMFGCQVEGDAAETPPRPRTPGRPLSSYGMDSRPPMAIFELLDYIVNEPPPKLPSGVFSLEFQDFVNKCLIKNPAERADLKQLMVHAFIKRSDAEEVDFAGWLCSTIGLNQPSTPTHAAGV
Protocol: MEK1 inhibitory activity of compounds were tested using the following procedure (protocol available at thermofisher.com/content/dam/LifeTech/migration/files/drug-discovery/pdfs.par.60256.file.dat/20130430%20ssbk%20customer%20protocol%20and%20assay%20conditions.pdf). The Z′-LYTE biochemical assay (ThermoFisher) employs a fluorescence-based, coupled-enzyme format and is based on the differential sensitivity of phosphorylated and non-phosphorylated peptides to proteolytic cleavage.
Test compounds in 100% DMSO were screened in 1% DMSO (final) in the well. For 10 point titrations, 3-fold serial dilutions are conducted from the starting concentration of 30 μM.
After the 1 hour incubation, 5 μL of a 1:1024 dilution of Development Reagent A (available from Invitrogen, catalog no. PV3295) was added.
ATP solutions were diluted to a 4× working concentration in Kinase Buffer (50 mM HEPES pH 7.5, 0.01% BRIJ-35, 10 mM MgCl2, 1 mM EGTA). ATP Km apparent was previously determined using a Z′-LYTE assay. The Development Reagent was diluted in Development Buffer (available from Invitrogen, catalog no. P3127).
Assay Protocol: 2.5 μL of 4× test compound or 100 nL of 100× Test Compound plus 2.4 μL Kinase Buffer, 5 μL of the 2× Peptide/Kinase Mixture, 2.5 μL of 4×ATP Solution were added to the plates and placed on a shake plate for 30-seconds. The kinase reaction was allowed to proceed for 60-minute at room temperature, before 5 μL of Development Reagent Solution was added, and the mixture agitated for 30-seconds on a shake plate. The mixture was incubated for 60-minute at room temperature. Fluorescence was measured using a plate reader and the data were analyzed.
This control yielded 100% cleaved peptide in the Development Reaction. The 100% Phosphorylation Control, which consisted of a synthetically phosphorylated peptide of the same sequence as the peptide substrate, was designed to allow for the calculation of percent phosphorylation. This control yielded a very low percentage of cleaved peptide in the Development Reaction. The 0% Phosphorylation and 100% Phosphorylation Controls allow for the calculation of the percent phosphorylation achieved in a specific reaction well.
The minimum emission ratio in a screen was established by the 0% Inhibition Control, which contained active kinase. This control was designed to produce a 10-50% phosphorylated peptide in the Kinase Reaction. Cascade assays may produce up to 70% phosphorylated peptide.
A known inhibitor control standard curve, 10 point titration, was run for each individual kinase on the same plate as the kinase to ensure the kinase was inhibited within an expected IC50 range previously determined.
The following controls are prepared for each concentration of Test Compound assayed. […] The expected value for a non-interfering compound should be 100%. Any value outside of 90% to 110% was flagged. […] The expected value for a non-fluorescence compound should be 0%. Any value >20% was flagged.
The data in Table A was calculated. XLfit from IDBS was used. The dose response curve was curve fit to model number 205 (sigmoidal dose-response model).

HCT116 cells = assay: HCT116 (Kras) GI50 cell-based assay (Cell Titer-Glo); settings: Homo sapiens, HCT-116, 72 hours, read-out: Assay 3: HCT116 (Kras) GI50
Protocol: as §1, §2

[1] = S9 Stability Assay, human liver S9 fraction; type: in vitro ADME; settings: for half-life at 1 μM / microsomal CLint at 1 μM: human liver S9 fraction, pH 7.4
Protocol: Compounds were assessed for metabolic stability in human skin by assessing their rate of disappearance from human S9 skin fraction. Similarly, compounds were assessed for metabolic stability in human liver by assessing their rate of disappearance from human S9 liver fraction. The protocol below can be used to assess the difference between skin and hepatic metabolism.
The assay was carried out in 96-well microtiter plates at 37° C. Reaction mixtures (25 μL) contained a final concentration of 1 μM test compound, 2 mg/mL liver or skin S9 protein, and 1 mM NADPH in buffer (100 mM potassium phosphate, pH 7.4 buffer with 1 mM EDTA, 3 mM MgCl2). At each of the time points (0, 15, 30, and 60 minutes), 150 μL of quench solution (100% acetonitrile with 0.1% formic acid) with internal standard was transferred to each well. Besides the zero minute controls, mixtures containing the same components except the NADPH were also prepared as the negative control. Verapamil or testosterone was included as a positive control to verify assay performance. Plates were sealed and centrifuged at 4° C. for 15 minutes at 4000 rpm. The supernatant was transferred to fresh plates for LC/MS/MS analysis.
All samples were analyzed on LC/MS/MS using an AB Sciex API 4000 instrument, coupled to a Shimadzu LC-20AD LC Pump system. Analytical samples were separated using a Waters Atlantis T3 dC18 reverse phase HPLC column (20 mm×2.1 mm) at a flow rate of 0.5 mL/min. The mobile phase consisted of 0.1% formic acid in water (solvent A) and 0.1% formic acid in 100% acetonitrile (solvent B).
The extent of metabolism was calculated as the disappearance of the test compound, compared to the 0-min control reaction incubations. Initial rates were calculated for the compound concentration and used to determine t1/2 values and subsequently, the intrinsic clearance, CLint=(0.693) (1/t1/2 (min)) (mL incubation/mg of S9 protein).

MEK1 = biological target: T2, MEK1 (Homo sapiens, UniProt Q02750); assay: MEK Inhibition Assay (Biological Example 1a, 33P-ATP, P81 filter-binding); settings: Biological Example 1a (used for compounds 2 and 6); read-out: Assay 1: biochemical MEK IC50
T2 construct: N-terminal His-tagged recombinant human full length protein, expressed in insect cells; His (N); purchased Invitrogen PV3303; host or cells: insect cells
T2 sequence (Q02750 whole entry): as above
Protocol: MEK1 inhibitory activity of compounds were tested using the following procedure.
• Reaction buffer: 20 mM Hepes (pH 7.5), 10 mM MgCl2, 1 mM EGTA, 0.02% Brij35, 0.02 mg/mL bovine serum albumin, 0.1 mM Na3V04, 2 mM DTT, 1% DMSO • Enzyme: MEK1, Invitrogen cat #PV3303 • N-terminal His-tagged recombinant human full length protein, expressed in insect cells. Activated in vitro by RAF1. MW=49.2 kDa, GenBank Accession No. NP_002746. • Substrate: 5 μM ERK2 (K52R), • Kinase-dead mutant, (GenBank Accession No. NM_0011949), aa2-358 with N-terminal His6 tag, MW=43.63 kDa, expressed in E. coli.
The substrate was prepared in freshly prepared Reaction Buffer. The kinase was delivered into the substrate solution and gently mixed. Test compounds were delivered in 100% DMSO into the kinase reaction mixture by Acoustic technology (Echo550; nanoliter range), and incubated for 20 min at room temperature. ^33P-ATP was delivered into the reaction mixture to initiate the reaction. The reaction mixture was incubated for 2 hours at room temperature. Kinase activity was detected by P81 filter-binding method.

[2] = human liver S9, unit min printed in b472 and Table 1, not in this table, read-out: Assay 4: human liver S9 half-life
[3] = human, read-out: Assay 5: human liver S9 intrinsic clearance value (μL/min/mg protein)

GI50 (A375 cells) | IC50 (MAP2K1 (MEK1)) | GI50 (HCT116 cells) | half-life at 1 μM [1, 2] | microsomal CLint at 1 μM [1, 3] | IC50 (MEK1) | Assay 5: human liver S9 intrinsic clearance value (μL/min/mg protein) ([1]; human liver S9) | half-life at 1 μM ([1]; Table 1, 1 μM test compound, 2 mg/mL S9 protein, NADPH, read-out: Liver S9 t1/2) | microsomal CLint at 1 μM ([1]; Table 1, read-out: CLint (μL/min/mg protein)) | SMILES
141 nM | 1030 nM | 348 nM | 29 min | 11.8 µL/min/mg |  |  |  |  | C#Cc1ccc(Nc2sc3ncccc3c2C(=O)NOCCO)c(F)c1 [Ex. 1, 2-((4-ethynyl-2-fluorophenyl)amino)-N-(2-hydroxyethoxy)thieno[2,3-b]pyridine-3-carboxamide]
 |  |  |  |  | 2910 nM |  |  |  | COc1ccc2c(C(=O)NOCCO)c(Nc3ccc(I)cc3F)sc2n1 [Ex. 6, 2-((2-fluoro-4-iodophenyl)amino)-N-(2-hydroxyethoxy)-6-methoxythieno[2,3-b]pyridine-3-carboxamide]
 | 256 nM |  | 54 min | 6.36 µL/min/mg |  |  |  |  | Cc1ccc2c(C(=O)NOCCO)c(Nc3ccc(I)cc3F)sc2n1 [Ex. 5, 2-((2-Fluoro-4-iodophenyl)amino)-N-(2-hydroxyethoxy)-6-methylthieno[2,3-b]pyridine-3-carboxamide]
 | 150 nM |  | 68 min | 5.1 µL/min/mg |  |  |  |  | COc1cnc2sc(Nc3ccc(I)cc3F)c(C(=O)NOCCO)c2c1 [Ex. 7, 2-((2-Fluoro-4-iodophenyl)amino)-N-(2-hydroxyethoxy)-5-methoxythieno[2,3-b]pyridine-3-carboxamide]
 | 74 nM |  |  |  |  | 13.35 μL/min/mg protein | 26 min | 13.3 µL/min/mg | O=C(NOCCO)c1c(Nc2ccc(I)cc2F)sc2ncccc12 [Ex. 3, 2-((2-Fluoro-4-iodophenyl)amino)-N-(2-hydroxyethoxy)thieno[2,3-b]pyridine-3-carboxamide]
145 nM |  | 257 nM | 16 min | 21.2 µL/min/mg | 915 nM |  |  |  | CSc1ccc(Nc2sc3ncccc3c2C(=O)NOCCO)c(F)c1 [Ex. 2, 2-((2-fluoro-4-(methylthio)phenyl)amino)-N-(2-hydroxyethoxy)thieno[2,3-b]pyridine-3-carboxamide]
